Data reported in the supplement of paper PMC12463676, “Small-molecule dissolution of stress granules by redox modulation benefits ALS models” (Nature Chemical Biology, 2025).

Columns and labels:
potassium arsenate = compound: O=[As]([O-])(O)O.[K+] [potassium arsenate]; assay: thermal stability z-score vs DMSO; higher = more thermally stabilized by treatment; settings: HeLa; arsenate concentration 1 mM
Method: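 Cellular thermal proteome profiling in HeLa cells treated with 1 mM arsenate for 1 h (DMSO pretreatment), heated to ten temperatures (37-66.3 °C). Soluble protein was quantified by TMT mass spectrometry relative to DMSO controls; the thermal stability score was transformed to a z-score; mean of n = 3 experiments.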

lipoamide = compound: NC(=O)CCCCC1CCSS1 [lipoamide]; assay: as above; settings: HeLa, lipoamide concentration 100 µM
Method: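 Cellular thermal proteome profiling in HeLa cells. Cells were treated with 100 µM lipoamide for 1 h, with or without 1 mM arsenate for a further 1 h, then heated to ten temperatures (37-66.3 °C), and soluble protein was quantified by TMT mass spectrometry relative to 0.1% DMSO controls. The thermal stability score (sum of log2 fold changes minus the abundance score) was transformed to a z-score; mean of n = 3 experiments.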

[1] = arsenate co-treatment: 1 mM arsenate 1 h
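Also: each temperature applied for 3 min, abundance score taken as mean log2 fold change at the two lowest temperatures, z-score obtained by mean subtraction and division by SD.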

Chain of UniProt Q5VT66 (Q5VT66 whole entry): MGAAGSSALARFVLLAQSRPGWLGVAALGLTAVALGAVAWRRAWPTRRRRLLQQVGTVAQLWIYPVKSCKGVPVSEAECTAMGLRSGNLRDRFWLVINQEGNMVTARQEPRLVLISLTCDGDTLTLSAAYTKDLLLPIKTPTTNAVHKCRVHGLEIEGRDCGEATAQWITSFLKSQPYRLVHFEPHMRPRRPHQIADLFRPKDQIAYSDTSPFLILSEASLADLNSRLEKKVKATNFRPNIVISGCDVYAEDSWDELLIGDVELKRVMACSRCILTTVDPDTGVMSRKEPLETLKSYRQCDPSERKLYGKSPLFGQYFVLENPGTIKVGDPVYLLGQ
Chain of UniProt Q70J99 (Q70J99 whole entry): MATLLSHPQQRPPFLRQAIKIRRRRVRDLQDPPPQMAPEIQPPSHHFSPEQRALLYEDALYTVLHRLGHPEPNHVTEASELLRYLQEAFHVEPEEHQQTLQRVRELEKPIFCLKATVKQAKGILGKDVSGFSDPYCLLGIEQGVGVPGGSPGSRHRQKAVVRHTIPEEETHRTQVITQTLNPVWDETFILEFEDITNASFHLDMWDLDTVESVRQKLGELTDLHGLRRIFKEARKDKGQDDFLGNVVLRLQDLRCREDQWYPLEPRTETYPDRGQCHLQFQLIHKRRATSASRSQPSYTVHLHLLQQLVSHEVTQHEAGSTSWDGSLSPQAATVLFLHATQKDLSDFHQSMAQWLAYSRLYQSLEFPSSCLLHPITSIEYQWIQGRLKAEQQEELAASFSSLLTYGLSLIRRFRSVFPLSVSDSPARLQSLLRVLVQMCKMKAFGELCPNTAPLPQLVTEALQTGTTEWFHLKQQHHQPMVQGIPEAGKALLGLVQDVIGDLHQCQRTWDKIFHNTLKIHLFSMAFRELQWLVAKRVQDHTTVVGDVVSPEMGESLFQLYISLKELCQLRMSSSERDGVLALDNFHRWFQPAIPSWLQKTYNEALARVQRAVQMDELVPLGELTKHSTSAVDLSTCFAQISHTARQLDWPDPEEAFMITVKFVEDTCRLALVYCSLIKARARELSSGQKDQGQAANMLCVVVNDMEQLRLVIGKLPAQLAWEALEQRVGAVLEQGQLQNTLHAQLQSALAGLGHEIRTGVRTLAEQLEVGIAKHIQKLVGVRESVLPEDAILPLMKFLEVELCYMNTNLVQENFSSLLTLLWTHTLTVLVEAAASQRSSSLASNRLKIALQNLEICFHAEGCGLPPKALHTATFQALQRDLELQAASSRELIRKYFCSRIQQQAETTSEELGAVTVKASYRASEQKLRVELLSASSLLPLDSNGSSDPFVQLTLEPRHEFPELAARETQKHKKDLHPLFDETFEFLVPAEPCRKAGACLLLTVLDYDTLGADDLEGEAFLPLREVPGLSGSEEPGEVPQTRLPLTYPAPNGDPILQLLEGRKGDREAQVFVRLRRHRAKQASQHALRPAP
Chain of UniProt Q969T4 (Q969T4 whole entry): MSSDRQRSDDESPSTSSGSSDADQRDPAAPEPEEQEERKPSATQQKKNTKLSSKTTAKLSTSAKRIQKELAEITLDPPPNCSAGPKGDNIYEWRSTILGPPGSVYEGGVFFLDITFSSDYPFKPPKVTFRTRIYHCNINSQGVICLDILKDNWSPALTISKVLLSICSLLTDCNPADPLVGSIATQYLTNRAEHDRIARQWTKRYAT
Chain of UniProt Q96GK7 (Q96GK7 whole entry): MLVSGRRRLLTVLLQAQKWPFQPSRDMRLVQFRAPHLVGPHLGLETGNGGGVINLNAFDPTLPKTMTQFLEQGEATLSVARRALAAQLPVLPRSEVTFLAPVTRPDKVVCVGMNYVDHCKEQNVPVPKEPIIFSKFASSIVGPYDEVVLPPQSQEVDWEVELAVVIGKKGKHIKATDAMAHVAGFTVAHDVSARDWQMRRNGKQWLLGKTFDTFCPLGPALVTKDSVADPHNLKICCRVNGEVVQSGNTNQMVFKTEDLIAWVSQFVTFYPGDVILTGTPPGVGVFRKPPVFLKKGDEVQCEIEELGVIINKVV
Chain of UniProt Q02413 (Q02413 whole entry): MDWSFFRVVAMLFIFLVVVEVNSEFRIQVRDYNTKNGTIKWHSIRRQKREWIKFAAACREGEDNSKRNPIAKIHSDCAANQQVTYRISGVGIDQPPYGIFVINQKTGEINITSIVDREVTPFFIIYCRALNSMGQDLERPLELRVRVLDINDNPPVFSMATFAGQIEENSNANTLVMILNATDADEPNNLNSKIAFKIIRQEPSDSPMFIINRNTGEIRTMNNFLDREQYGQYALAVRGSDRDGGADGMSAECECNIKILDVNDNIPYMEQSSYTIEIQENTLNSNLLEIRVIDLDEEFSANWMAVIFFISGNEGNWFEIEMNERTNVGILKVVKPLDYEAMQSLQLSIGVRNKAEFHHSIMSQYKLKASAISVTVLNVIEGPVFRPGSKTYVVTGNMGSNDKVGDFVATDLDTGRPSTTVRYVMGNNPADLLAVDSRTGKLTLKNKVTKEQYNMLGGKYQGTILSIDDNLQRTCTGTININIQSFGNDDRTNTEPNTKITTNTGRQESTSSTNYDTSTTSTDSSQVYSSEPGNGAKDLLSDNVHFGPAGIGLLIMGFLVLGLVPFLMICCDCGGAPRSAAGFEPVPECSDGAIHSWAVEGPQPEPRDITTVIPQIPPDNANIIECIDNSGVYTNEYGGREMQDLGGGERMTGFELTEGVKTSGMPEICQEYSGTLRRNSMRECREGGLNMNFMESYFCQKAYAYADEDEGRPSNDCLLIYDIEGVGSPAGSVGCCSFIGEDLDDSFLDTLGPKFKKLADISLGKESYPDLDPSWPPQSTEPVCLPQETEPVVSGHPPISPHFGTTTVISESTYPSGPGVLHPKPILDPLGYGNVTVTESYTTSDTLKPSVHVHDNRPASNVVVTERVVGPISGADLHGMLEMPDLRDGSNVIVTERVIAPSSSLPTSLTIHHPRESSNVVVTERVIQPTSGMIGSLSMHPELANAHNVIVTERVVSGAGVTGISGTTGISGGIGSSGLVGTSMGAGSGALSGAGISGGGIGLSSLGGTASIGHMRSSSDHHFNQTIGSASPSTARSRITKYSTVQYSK
Chain of UniProt P49755 (P49755 whole entry): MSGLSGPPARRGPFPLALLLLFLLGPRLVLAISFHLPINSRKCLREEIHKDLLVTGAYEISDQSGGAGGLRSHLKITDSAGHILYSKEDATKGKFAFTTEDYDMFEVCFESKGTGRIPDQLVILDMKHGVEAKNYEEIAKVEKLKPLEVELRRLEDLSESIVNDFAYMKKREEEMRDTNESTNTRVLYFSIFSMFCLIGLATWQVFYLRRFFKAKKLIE
Chain of UniProt Q9BTE7 (Q9BTE7 whole entry): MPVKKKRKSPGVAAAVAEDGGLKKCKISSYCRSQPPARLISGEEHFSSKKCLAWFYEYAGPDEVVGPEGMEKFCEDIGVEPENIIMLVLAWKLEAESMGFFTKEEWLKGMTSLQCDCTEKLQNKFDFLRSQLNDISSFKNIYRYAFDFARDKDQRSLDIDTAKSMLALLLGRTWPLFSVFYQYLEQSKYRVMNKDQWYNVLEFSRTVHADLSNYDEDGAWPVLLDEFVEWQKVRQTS
Chain of UniProt P19971 (P19971 whole entry): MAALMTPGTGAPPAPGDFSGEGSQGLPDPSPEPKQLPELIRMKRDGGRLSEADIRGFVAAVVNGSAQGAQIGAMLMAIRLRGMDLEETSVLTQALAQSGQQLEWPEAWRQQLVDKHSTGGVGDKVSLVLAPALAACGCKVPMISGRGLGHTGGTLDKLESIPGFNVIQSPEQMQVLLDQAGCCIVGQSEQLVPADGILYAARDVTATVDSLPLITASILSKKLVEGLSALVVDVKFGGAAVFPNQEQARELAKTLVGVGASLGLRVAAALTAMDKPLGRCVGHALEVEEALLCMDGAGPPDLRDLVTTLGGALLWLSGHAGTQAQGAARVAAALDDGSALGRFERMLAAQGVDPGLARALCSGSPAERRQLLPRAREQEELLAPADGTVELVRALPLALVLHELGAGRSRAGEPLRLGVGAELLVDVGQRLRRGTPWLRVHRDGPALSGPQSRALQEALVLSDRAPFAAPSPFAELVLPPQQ
Chain of UniProt P07384 (P07384 whole entry): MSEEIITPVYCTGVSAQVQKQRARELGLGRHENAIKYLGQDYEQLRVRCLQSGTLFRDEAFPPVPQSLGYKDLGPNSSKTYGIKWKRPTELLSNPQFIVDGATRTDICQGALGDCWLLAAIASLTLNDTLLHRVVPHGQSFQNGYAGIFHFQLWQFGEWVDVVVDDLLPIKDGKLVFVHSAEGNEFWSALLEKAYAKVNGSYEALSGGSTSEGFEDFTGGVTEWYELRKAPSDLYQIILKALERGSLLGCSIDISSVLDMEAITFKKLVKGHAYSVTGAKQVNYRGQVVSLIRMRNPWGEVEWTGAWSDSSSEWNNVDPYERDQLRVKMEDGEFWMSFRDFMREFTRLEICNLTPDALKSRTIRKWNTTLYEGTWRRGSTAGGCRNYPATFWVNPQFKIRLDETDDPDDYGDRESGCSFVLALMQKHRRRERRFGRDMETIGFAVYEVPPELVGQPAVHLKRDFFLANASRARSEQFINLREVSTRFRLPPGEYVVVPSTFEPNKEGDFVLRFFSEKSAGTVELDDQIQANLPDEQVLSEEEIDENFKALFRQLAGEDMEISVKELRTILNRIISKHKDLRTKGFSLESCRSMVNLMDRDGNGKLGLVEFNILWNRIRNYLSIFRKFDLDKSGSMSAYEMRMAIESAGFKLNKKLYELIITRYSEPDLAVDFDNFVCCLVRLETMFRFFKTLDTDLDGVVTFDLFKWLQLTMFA
Chain of UniProt Q12792 (Q12792 whole entry): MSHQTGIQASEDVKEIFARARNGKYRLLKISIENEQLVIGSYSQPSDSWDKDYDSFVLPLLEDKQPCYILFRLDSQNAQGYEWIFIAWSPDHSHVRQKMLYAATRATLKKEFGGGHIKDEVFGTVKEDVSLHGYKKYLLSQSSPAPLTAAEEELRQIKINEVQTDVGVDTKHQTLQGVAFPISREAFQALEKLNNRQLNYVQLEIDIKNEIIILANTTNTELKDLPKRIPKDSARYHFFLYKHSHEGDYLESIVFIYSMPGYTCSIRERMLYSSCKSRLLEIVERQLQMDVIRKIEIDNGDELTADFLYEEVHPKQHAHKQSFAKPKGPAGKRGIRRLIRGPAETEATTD

Target	thermal stability z-score (potassium arsenate)	thermal stability z-score (lipoamide; [1])	thermal stability z-score (lipoamide; arsenate co-treatment: none)
PHACTR4 (UniProt Q8IZ21)	-0.282	0.747	0.22
TRIM21 (UniProt P19474)	0.307	-0.677	-0.149
DSG1 (UniProt Q02413)	1.69	11	13.3
UBE2E3 (UniProt Q969T4)	1.92	0.196	-0.0847
LARP7 (UniProt Q4G0J3)	0.0679	0.34	0.152
INPP4A (UniProt Q96PE3)	0.221	0.395	0.319
FAHD2A (UniProt Q96GK7)	-0.0563	0.146	-0.0859
COX11 (UniProt Q9Y6N1)	0.0514	0.0437	-0.0617
APPL1 (UniProt Q9UKG1)	1.2	-0.333	0.107
FXR2 (UniProt P51116)	0.783	0.0778	0.0347
DCUN1D5 (UniProt Q9BTE7)	-0.507	-0.0389	0.215
NT5C3A (UniProt Q9H0P0)	-1.77	0.0681	0.155
TARS (UniProt P26639)	0.853	0.0423	-0.0639
TYMP (UniProt P19971)	0.13	0.856	0.677
HEXIM2 (UniProt Q96MH2)	0.53	-0.264	0.637
CNN2 (UniProt Q99439)	0.356	0.281	0.653
TMED10 (UniProt P49755)	0.275	-1.53	-1.03
NDUFB9 (UniProt Q9Y6M9)	-0.937	0.158	-0.175
CDC42EP1 (UniProt Q00587)	0.213	-0.844	-0.776
DBT (UniProt P11182)	-1.75	-0.65	-0.0292
GTF3C2 (UniProt Q8WUA4)	-0.411	0.112	0.0176
PITRM1 (UniProt Q5JRX3)	2.58	0.579	0.327
VAPB (UniProt O95292)	-0.178	-0.055	0.415
PFDN5 (UniProt Q99471)	1.22	1.81	1.27

Target	thermal stability z-score (potassium arsenate)	thermal stability z-score (lipoamide; [1])	thermal stability z-score (lipoamide; arsenate co-treatment: none)
ANXA3 (UniProt P12429)	0.227	0.902	0.504
MTA1 (UniProt Q13330)	-1.05	0.06	0.414
SCFD1 (UniProt Q8WVM8)	0.224	-0.771	-0.32
MED6 (UniProt O75586)	0.00858	0.171	0.0477
PEO1 (UniProt Q96RR1)	0.122	-0.0405	0.0511
ZMYM4 (UniProt Q5VZL5)	-0.646	-0.347	0.0509
IFT122 (UniProt Q9HBG6)	0.188	0.185	0.177
UNC13D (UniProt Q70J99)	-0.283	-0.15	-0.154
EIF3M (UniProt Q7L2H7)	0.304	0.136	-0.372
PDF (UniProt Q9HBH1)	-0.495	-0.494	-0.231
ELP3 (UniProt Q9H9T3)	-0.259	0.0482	0.104
MRPL47 (UniProt Q9HD33)	0.268	-0.428	-0.0176
PCBP1 (UniProt Q15365)	-1.31	-0.057	0.0883
AP1G1 (UniProt O43747)	0.813	-0.704	-0.404
ERCC6	-0.581	1.08	0.347
RBM19 (UniProt Q9Y4C8)	0.649	0.0627	0.309
PTTG1IP (UniProt P53801)	-0.2	-0.059	-0.0338
MYL6 (UniProt P60660)	-0.312	0.576	0.451
VAMP4 (UniProt O75379)	0.236	1.45	1.92
MARC1 (UniProt Q5VT66)	1.12	0.204	0.806
TWF1 (UniProt Q12792)	-0.412	0.503	0.245
CDYL (UniProt Q9Y232)	0.0814	2.68	1.28
KLHDC4 (UniProt Q8TBB5)	-0.251	-0.895	-0.0677
RHOC (UniProt P08134)	0.995	0.307	0.963

Target	thermal stability z-score (potassium arsenate)	thermal stability z-score (lipoamide; [1])	thermal stability z-score (lipoamide; arsenate co-treatment: none)
ILF3 (UniProt Q12906)	-1.11	1.39	0.801
EMC1 (UniProt Q8N766)	0.695	-2.01	-1.43
RBBP4 (UniProt Q09028)	-0.0159	0.868	0.934
MEA1 (UniProt Q16626)	0.711	1.48	1.28
CAPN15 (UniProt O75808)	-0.24	0.0525	0.0796
EPHA2 (UniProt P29317)	-0.211	-0.528	-0.029
CHPF2 (UniProt Q9P2E5)	-0.154	-0.824	-0.516
XRCC1 (UniProt P18887)	-0.417	-0.0745	0.0492
NCEH1 (UniProt Q6PIU2)	-0.34	-0.5	-0.83
NUP85 (UniProt Q9BW27)	0.613	0.16	0.113
MRPS6 (UniProt P82932)	-0.516	-0.216	-0.13
GDPD1 (UniProt Q8N9F7)	-1.05	-0.226	-0.624
CTNNB1 (UniProt P35222)	0.308	0.545	0.798
TFAP4 (UniProt Q01664)	1.02	0.339	0.809
DR1 (UniProt Q01658)	-0.043	0.466	0.257
LXN (UniProt Q9BS40)	0.992	0.274	0.0402
UNK (UniProt Q9C0B0)	-0.364	0.117	0.0195
C7ORF50 (UniProt Q9BRJ6)	-0.593	-0.995	-0.353
CAPN1 (UniProt P07384)	-0.369	-0.0396	-0.213
LYSMD1 (UniProt Q96S90)	0.777	1.23	0.621
SMAP (UniProt O00193)	-0.154	0.384	0.48
PRPF31 (UniProt Q8WWY3)	-0.687	-0.0354	-0.524
WASF1 (UniProt Q92558)	-0.375	-0.121	-0.0242
SIN3A (UniProt Q96ST3)	-0.303	-0.000782	0.0569
